Measurements reported in patent US11584741B2, “Crystalline forms of 4-(5-(4,7-dimethylbenzofuran-2-yl)-1,2,4-oxadiazol-3-yl)benzoic acid and processes for their preparation” (King's College London, priority 2016, dated 2023).

How the values were obtained:
[1] = tested on: cerebellar neurons; test: Neurite outgrowth assay, cerebellar neurons in the presence of myelin / MAG; format: cell-based, rat; settings: cerebellar neurons grown in the presence of myelin
Method: (§1) Cerebellar neurons isolated from post-natal day 3 rat pups were cultured over monolayers of parental 3T3 cells in control media, or media supplemented with a recombinant MAG-Fc chimera (R&D Systems) used at a final concentration of 20 μg/mL MAG-Fc. The monolayers were established for 24 hours prior to addition of the neurons and the co-cultures were maintained for approximately 21 hours. Following careful fixation with 4% paraformaldehyde, the neurons were immuno-stained with a GAP-43 antibody (from Graham Wilkin, Imperial College), dilution of 1:500, and the mean length of the longest neurite per cell was measured for approximately 120-150 neurons as previously described (see, e.g., Williams et al., 2005). DRG and cortical explants were obtained from adult rats, they were cultured in cellogen as previously described (see, e.g., Corcoran and Maden, 1999). Three explants per treatment were used. Neurite outgrowth was assessed 3 days later by immunohistochemistry with NF200 (Sigma, dilution of 1:200). The average lengths of the neurites were measured using image pro plus software. Media consisted of DMEM-F12 (Invitrogen) containing N2 (Invitrogen) supplemented with glucose (33 mM) and glutamine (2 mM).

[2] = tested on: corticospinal tract (CST) of rats crushed at the C4 level; test: Corticospinal tract (CST) crush at C4 in rats, agonist applied to the lateral ventricle; format: in vivo; settings: rat
Method: The results are illustrated in Borthwick et al., 2016.
All animal experiments were carried out under UK home office regulations. Dorsal column lesions were performed on adult male rats as previously described (see, e.g., Bradbury et al., 2002). […] The pumps were placed subcutaneously and connected to a brain infusion catheter (Alzet™), which was inserted into the lateral ventricle (Bregma coordinates: rostrocaudal: −0.8 mm, mediolateral: −1.5 mm and dorsoventral: −4.5 mm). […] The dose was based previous in vivo studies on activation of RARα and RARβ signalling in the adult rat brain (see, e.g., Goncalves et al., 2009). Animals which underwent behavioural studies and subsequent tracing (n=6 per treatment) were kept for six weeks before being sacrificed with a lethal injection of pentobarbital and transcardially perfused with 4% PFA. Dissected tissue (cervical and lumbar spinal cord) was processed for immunofluorescence.
Descendent corticospinal tract axons were anterogradely traced after the dorsal column crush was performed by injected BDA (10% in PBS, Mw10K from Molecular Probes) into the motor cortex as previously described (see, e.g., Yip et al., 2006). Six injections were done in the right cortex (0.5 μL of BDA/injection point). Animals (n=6 per treatment) were perfused and the spinal cord was transferred to PBS (plus 0.1% sodium azide) and embedded in gelatin (10%, 300 bloom; Sigma, Poole, UK). Gelatin blocks were hardened in 4% paraformaldehyde, and 40 μm free-floating serial transverse sections were cut on a vibratome (Leica, Nussloch, Germany) and collected in 24-well plates containing PBS (plus 0.1% sodium azide).
BDA was detected using the tyramide amplification kit (Perkin-Elmer) coupled with extra-avidin-FITC (Amersham Pharmacia Biotech, UK, 1:500). All BDA-labelled fibres observed within a 1-mm square grid were counted at measured intervals from 5 mm above to 5 mm below the lesion site by an experimenter, blinded to treatment.
CST neurons were labelled by retrograde tracing injecting 2 μL of 5% Fluorogold (FG, Molecular Probes) 2 mm deep into the cervical spinal cord (C3-C4) at a rate of 0.5 μL/minute (n=3 rats per group). In sham animals, FG was injected 0.5 mm bilateral to the medial line of spinal cord (1 μL per side), and in lesioned animals FG (2 μL) was injected into the injury. After 14 days, the cortices were fixed for 2 hours in 4% paraformaldehyde (PFA), embedded in OCT compound and stored frozen. Sagittal sections (12 μm) were cut and 4 sequential slides containing 2 sections from lateral 3.4-3.9 mm were taken for analysis (see, e.g., Paxinos and Watson, 2002).
Immunohistochemistry was carried out using anti-rabbit phospho-Akt (Cell Signalling technology, dilution of 1:100). Secondary antibody used was anti-rabbit Cy3 conjugated (Jackson, used at 1:1000). Images were captured at 100× magnification using a Roperscientific digital camera.
The behavioural tests were carried out as previously described (see, e.g., Bradbury et al., 2002). Rats (n=6 per treatment group) were first trained for two weeks before surgery to perform grid walk and beam walk; they were then tested by an observer blinded to the experimental treatment once a week for five weeks after lesion.

[3] = tested on: rats with severed and re-implanted sensory roots at the level of the left forelimb; test: Sensory roots of four DRG severed and re-implanted into the spinal cord, sticky tape tests; format: in vivo; settings: rat, after 5 weeks, 1 mg/kg three times a week
Method: In another example of nerve injury, the four sensory roots from each of four DRG at the level of the left forelimb were severed and re-implanted into the spinal cord.
The results are illustrated in Borthwick et al., 2016. […] Rats were treated with 1 mg/kg of the test compound or vehicle two days after lesion, and then three times a week for the period of the experiment. Error bars show SEM. ***P<0.001, students t test, n=3-4 rats for each treatment group. At weeks 3, 4, and 5, there was significant difference between the rats treated with RARβ agonist as compared to rats treated with other retinoid agonists and vehicle.

[4] = tested on: corticospinal tract (CST) of rats crushed at the C4 level; settings: in vivo; Agudo et al., 2010; cited from earlier work
[5] = tested on: cortical explants; test: Neurite outgrowth from cultured cortex of treated lesioned animals; format: cell-based, rat; settings: cortex of lesioned rats treated in vivo; vehicle: did not grow
Method: When pieces of cortex from these RARβ agonist treated animals were cultured, neurite outgrowth was observed, in contrast to cortex from control lesioned animals.
as §1

[6] = i.c.v. 180 ng/kg/day for 14 days

For `COc1ccc(-c2ccc3cc(C(=O)O)ccc3c2)cc1C1(C)CCCCC1` [CD2019, 6-(4-methoxy-3-(1-methylcyclohexyl)phenyl)-2-naphthalenecarboxylic acid], the Neurite outgrowth [1] was “causes the outgrowth of neurites”, the “Behavioural tests (grid and beam task)” value ([2]; after 5 weeks) was “performed as well as non-lesioned animals” and the “BDA-labelled CST axons crossing the lesion site” value ([2]; after 5 weeks, vs vehicle (no axons across)) was “many axons were observed crossing the injury site”. For the same molecule, the “Time to functional recovery, beam task” value [2, 6] was 2 weeks post lesion, the “Time to functional recovery, grid task” value [2, 6] was 4 weeks post lesion and the “RARβ2 expression in the CST neuronal cell bodies” value ([2]; lateral ventricle for 2 weeks) was “upregulation of RARβ2”. For the same molecule, the “Behavioural test (sticky tape)” value [3] was “performed as well as non-lesioned animals”, the “Phospho AKT in the injured CST neurons” value [4] was “induced” and the “Axon growth from cultured adult cortex of treated animals” value [5] was “did grow”.
